Measurements published in PMC7940615 (Scientific Reports, 2021).

Legend:
[1] = tested on: SARS-CoV-2; experiment: Viral RNA by qRT-PCR in culture medium of human lung A549 cells; type: cell-based
[2] = tested on: SARS-CoV-2; experiment: Antiviral assay in Vero E6 cells, immunofluorescence of nucleocapsid protein; type: cell-based; conditions: 72 h post infection; for IC50: immunofluorescence, MOI 0.1, read-out: IC50, inhibition of SARS-CoV-2 replication
[3] = in vitro; conditions: human
[4] = tested on: SARS-CoV-2; experiment: Antiviral assay in human lung A549 cells (ACE2, TMPRSS2), immunofluorescence of nucleocapsid protein; type: cell-based; conditions: human lung A549 cells expressing ACE2 and TMPRSS2
[5] = tested on: human lung A549 cells
[6] = tested on: Vero E6 cells
[7] = tested on: SARS-CoV-2; experiment: Viral RNA by qRT-PCR in culture medium of Vero E6 cells; type: cell-based
[8] = tested on: SARS-CoV-2; conditions: Vero E6 cells; famotidine 0.32–200 µM; remdesivir 0.1–62.5 µM
[9] = blood of patients in both clinical studies; cited from earlier work
[10] = tested on: non-hospitalized patients; conditions: 10 non-hospitalized patients; oral 240 mg per day for a median of 11 days; cited from earlier work
[11] = tested on: hospitalized COVID-19 patients; conditions: 1620 patients; total median dose of 136 mg, oral or IV once daily, 6 days; cited from earlier work

Structure (SMILES)	effect on viral RNA copies (qRT-PCR, E gene) [1]	IC50 ([2]; Severe acute respiratory syndrome coronavirus 2, Vero C1008, 72 h) [µM]	IC50 [2] [µM]	CC50 [3] [µM]	IC50 ([4]; Severe acute respiratory syndrome coronavirus 2, immunofluorescence, 72 h post infection, MOI 0.1, read-out: IC50, inhibition of SARS-CoV-2 replication) [µM]	cytotoxicity (in words) [5]	cytotoxicity (in words) [6]	effect on viral RNA copies (qRT-PCR, E gene) [7]	antiviral effect on virus yield (plaque formation) [8]	inhibition of SARS-CoV-2 replication (in words) ([2]; concentrations of up to 200 μM)	inhibition of SARS-CoV-2 replication (in words) ([4]; 0.32–200 µM, 72 h)	peak plasma concentrations [9] [µM]	patient-reported symptoms such as shortness of breath and cough [10]	risk of death or intubation [11]
CCC(CC)COC(=O)[C@H](C)N[P@](=O)(OC[C@H]1O[C@@](C#N)(c2ccc3c(N)ncnn23)[C@H](O)[C@@H]1O)Oc1ccccc1 [Remdesivir, remdesivir]	dose-dependent	3.3	3.37	14.6	0.43	dose-dependent cytotoxicity at higher concentrations	dose-dependent cytotoxicity at higher concentrations	dose-dependent	dose-dependent antiviral effect					
NC(N)=Nc1nc(CSCCC(N)=NS(N)(=O)=O)cs1 [Famotidine]	no effect							no effect	no effect on limiting virus plaque formation	did not produce any measurable inhibition	no measurable effect	0.5 to 2	patient-reported improvements in symptoms	reduced risk of death or intubation
